In PubChem BioAssay (NCI) one finds TGI and GI50 data, which are given here for 21 molecules.

Structures are written as SMILES.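 Briefly, cells in 96-well plates were exposed to five compound concentrations for 48 h, and endpoints were estimated by linear interpolation. The concentration for 50% growth inhibition is given as GI50. TGI: total growth inhibition.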

Common to all, as to test: DTP human tumour cell line panel, 48 h
Experiment [1] relates to XF 498 CNS.
Experiment [2] deals with DMS 114 small cell lung.
Experiment [3] has as its system SF-295 CNS.
For experiment [4], the system named is MALME-3M melanoma.
In experiment [5] the test system is ACHN renal.
Experiment [6] relates to OVCAR-3 ovarian.
Experiment [7] has as its system UACC-257 melanoma.
The test system of experiment [8] is RPMI-8226 leukemia.
Experiment [9] has as its system CCRF-CEM leukemia.
Experiment [10] relates to PC-3 prostate.
The test system of experiment [11] is BT-549 breast.

Consider `COc1cc(OC)c2c(O)cc(CC(C)O)cc2c1` (stereo unspecified), for which the TGI in experiment [1], in experiment [2], in [3], in [4], in experiment [5] and in [6] was more than 100 µM throughout. Besides, the concentration for total growth inhibition (TGI) in [7], in experiment [8] and in experiment [9] was more than 100 µM each time.

With `COC(=O)C12Oc3ccc(-c4ccc5c(c4O)C(=O)C4=CCC(C)C(O)C4(C(=O)OC)O5)c(O)c3C(=O)C1=CCC(C)C2O` (stereo unspecified), the TGI (as a rule, the concentration at which net growth stops) in [2] stood at 3.81 µM; in [3] it was 6.05 µM; in experiment [4], 3.28 µM; in experiment [5] it was 3.21 µM; in [6] it was 2.9 µM; in experiment [7] it was 4.95 µM. In experiment [9], this molecule gave a TGI of 9.26 µM.

As to `O=C1C(Br)=CC2([N+](=O)[O-])CCNc3c(O)c4c5c(c3C2=C1Br)=NCCC=5C=N4` (stereo unspecified), the concentration for total growth inhibition (TGI) in experiment [1] worked out at 5.48 µM; in experiment [2], 0.545 µM; in experiment [3], 4.63 µM; in experiment [6] it was 0.784 µM; in [7], 0.887 µM; in experiment [8], 0.761 µM. In experiment [9], this molecule returned a TGI of 1.41 µM.

On to `CCOC(=O)/C(O)=C1\C(=O)N(C)C(=O)C1c1ccc(OC)c(OC)c1` (stereo unspecified), for which the TGI in [1], in experiment [2], in experiment [3], in experiment [4], in experiment [6] and in experiment [7] was more than 100 µM each time. For the same molecule, the TGI in [8] and in experiment [9] was more than 100 µM in each case.

In the case of `c1ccc(CNc2c3c(nc4ccccc24)CCC3)cc1`, the total growth inhibition concentration (TGI) in experiment [3] came out at 22 µM; in experiment [4], 33.4 µM; in [5], 40.9 µM; in experiment [10], 33.3 µM; in experiment [6], 30.8 µM; in [7] it was 29.3 µM. Also, the values for the total growth inhibition concentration (TGI) in experiment [8], in [9] and in experiment [11] were 29.9 µM, 20.9 µM and 37.1 µM, respectively.

Turning to `CCCC/C=C1\CCC(CN2CCCCC2)C1=O` (stereo unspecified), the total growth inhibition concentration (TGI) in experiment [1] is 6.58 µM; in experiment [2], 16.1 µM; in [3], 45.5 µM; in experiment [4], 15.4 µM; in experiment [5], 44.3 µM; in [10], more than 100 µM. The total growth inhibition concentration (TGI) in experiment [6] was 46 µM; in experiment [7] it was 42 µM; in experiment [9], 16.2 µM; in experiment [11], more than 100 µM.

Regarding `CC(=O)O[C@H]1CC[C@@]2(C)C(=CC[C@@H]3[C@@H]2CC[C@]2(C)C(c4cccnc4)=CC[C@@H]32)C1`, the GI50 – broadly, the concentration at which growth is held to half of that of the control – in [3] was 2.33 µM; in [4], 3.24 µM; in experiment [5], 4.88 µM; in [10] it was 3.98 µM; in experiment [6] it was 5.52 µM; in experiment [7], 28.1 µM. In addition, the GI50 is 2.81 µM in experiment [8], 16.7 µM in [9] and 2.96 µM in [11]. Moreover, the total growth inhibition concentration (TGI) is 8.35 µM in [3]; 33.9 µM in experiment [4]; 43.9 µM in experiment [5]; more than 100 µM in experiment [10]; more than 100 µM in experiment [6]; more than 100 µM in experiment [7]. For the same molecule, the concentration for total growth inhibition (TGI) in experiment [8] was 8.07 µM; in experiment [9], more than 100 µM; in experiment [11], 17.3 µM.

Take `Oc1ccc(Cl)cc1C1=N/C(=N\CN2CCN(C/N=C3/N=C(c4cc(Cl)ccc4O)CC(c4ccccc4)N3)CC2)NC(c2ccccc2)C1` (stereo unspecified): the TGI in experiment [3] was 91.7 µM; in [4], more than 100 µM; in [5], 75.6 µM; in experiment [10], more than 100 µM; in experiment [6] it was 55.4 µM; in experiment [7], more than 100 µM. Further, the results for the TGI in [8], in experiment [9] and in experiment [11] were 76.1 µM, more than 100 µM and more than 100 µM, respectively.

`CCCCOC(=O)CNC(=O)OCCCCC#CC#CCCCCOC(=O)NCC(=O)OCCCC`: the total growth inhibition concentration (TGI) in experiment [1], in experiment [2], in experiment [3], in experiment [4], in [5] and in experiment [7] was more than 100 µM each time. Moreover, the TGI in experiment [8] and in experiment [9] was more than 100 µM throughout.

As to `O=C(NCCN(CCNC(=O)c1cccc(=O)n1O)CCN(CCNC(=O)c1cccc(=O)n1O)CCNC(=O)c1cccc(=O)n1O)c1cccc(=O)n1O`, the TGI in [3], in experiment [4], in [5], in [10], in experiment [6] and in [7] was more than 100 µM each time. Further, the TGI in experiment [8], in experiment [9] and in experiment [11] was more than 100 µM throughout.

For the molecule `COC(=O)Cc1ccc2c(c1)Sc1ccc(CC(=O)OC)cc1N2C`, the TGI in experiment [3] was more than 87.1 µM; in experiment [4], 80.6 µM; in experiment [5], more than 100 µM; in experiment [10], more than 100 µM; in experiment [6], more than 100 µM; in [7], more than 93 µM. Moreover, the TGI was more than 100 µM in experiment [8], more than 95.7 µM in experiment [9] and 91.7 µM in experiment [11].

Regarding `CCCCCc1cc(OC(=O)c2c(O)cc(OC)cc2CCCCC)cc(O)c1C(=O)O`, the concentration for total growth inhibition (TGI) was 32.5 µM in [1]; 33.9 µM in [2]; 35.4 µM in experiment [3]; 26.1 µM in experiment [4]; 35.9 µM in [5]; 71.2 µM in experiment [8]. The molecule also had a concentration for total growth inhibition (TGI) in experiment [9] of 47.8 µM.

For the molecule `Cc1ccc(C)n2c1nc1ccc3ccccc3c12`, the TGI in [3], in experiment [4], in experiment [5], in experiment [10], in experiment [6] and in [7] was more than 100 µM each time. Besides, the concentration for total growth inhibition (TGI) in [8], in experiment [9] and in experiment [11] was more than 100 µM throughout.

In the case of `COc1ccc2nc3cc(Cl)ccc3c(NCCCCCC(=O)NC(COc3cnc4c(ccc5cccnc54)c3)COc3cnc4c(ccc5cccnc54)c3)c2c1`, the TGI in experiment [3] was 55.5 µM; in experiment [4], more than 100 µM; in experiment [5] it was more than 100 µM; in experiment [10] it was 26.8 µM; in experiment [6], 34.6 µM; in experiment [7], 31.4 µM. In addition, the concentration for total growth inhibition (TGI) is 20.2 µM in experiment [8], 12.6 µM in experiment [9] and 24.1 µM in experiment [11].

For `CN1CC2=C(OC(N)=C(C#N)C2c2cccs2)/C(=C/c2cccs2)C1` (stereo unspecified), the concentration for total growth inhibition (TGI) in [3] is more than 100 µM; in experiment [4] it was 38.4 µM; in [5], 38.7 µM; in [10], more than 60.5 µM; in experiment [6] it was 56.5 µM; in experiment [7] it was more than 100 µM. Also, the TGI in experiment [8] is more than 42.7 µM; in [9], more than 29 µM; in experiment [11] it was more than 100 µM.

With `Cn1ccnc1Sc1ccc(/C=N/NC(=O)c2ccccc2O)cc1[N+](=O)[O-]`, the TGI in experiment [3], in experiment [4], in experiment [5], in experiment [10], in experiment [6] and in experiment [7] was more than 100 µM in each case. For the same molecule, the TGI in [8] is 41.2 µM; in [9] it was more than 100 µM; in experiment [11], more than 100 µM.

In the case of `COc1ccc(N[C@H](CS(=O)c2ccc(C)cc2)c2ccc(F)cc2)cc1` (stereo partly specified), the TGI in experiment [3], in experiment [4], in experiment [5], in experiment [10], in [6] and in experiment [7] was more than 100 µM each time. Besides, the TGI in experiment [8], in experiment [9] and in experiment [11] was more than 100 µM each time.

For `COc1ccc2c(c1)OC(c1cccnc1)C(c1ccccc1)C2=O` (stereo unspecified), the concentration for total growth inhibition (TGI) in [3], in experiment [4], in [5], in experiment [10], in [6] and in experiment [7] was more than 100 µM throughout. Further, the total growth inhibition concentration (TGI) in experiment [8], in experiment [9] and in [11] was more than 100 µM in each case.

As to `N#CC1=C2Sc3ccccc3N2[C@H](c2ccccc2)[C@H]2COC(=O)[C@@H]12`, the TGI in experiment [3] was more than 100 µM; in experiment [4], 81.8 µM; in experiment [5], more than 100 µM; in experiment [10], more than 100 µM; in [6], more than 100 µM; in [7], more than 100 µM. Moreover, the concentration for total growth inhibition (TGI) worked out at 87.2 µM in experiment [8], 30.7 µM in experiment [9] and 70.6 µM in experiment [11].

As for `COc1ccc(CCn2cnc3ccccc32)cc1`, the total growth inhibition concentration (TGI) in experiment [3], in experiment [4], in [5], in [10], in [6] and in [7] was more than 100 µM each time. The TGI in [8], in [9] and in experiment [11] was more than 100 µM each time.

With `CSc1nc(NC2CCCC2)c2cc[nH]c2n1`, the TGI in experiment [3], in experiment [4], in experiment [5], in experiment [10], in experiment [6] and in experiment [7] was more than 100 µM throughout. In addition, the concentration for total growth inhibition (TGI) in experiment [8], in experiment [9] and in experiment [11] was more than 100 µM each time.
